The values below come from patent publication US20240360148A1 (SUVALENT THERAPEUTICS, INC., priority 2021, published 2024).

What is called IC50 is the point on the concentration scale where inhibition reaches its midpoint. The term efflux ratio denotes the permeability from basolateral to apical divided by that in the opposite direction, in the common usage.

The target of data set [1] is SAE1 (Homo sapiens (Human), UniProt Q9UBE0+Q9UBT2). In words: SAE High Throughput Biochemical Assay (HTRF), 15 min preincubation. As to conditions: read-out: 15 min preincubation HTRF IC50 (μM) Ave, SAE1 12.5 nM, ATP 100 μM. The method, boiled down:
(§1)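 SAE1 (12.5 nM) was preincubated with compound for 15 min at RT in HEPES pH 7.5, 0.1% BSA, 10 mM MgCl2. The reaction was then started with SUMO-GST and UBC9-His (40 nM each) plus 100 μM ATP for 45 min. After KF stop, HTRF (anti-GST-XL665/anti-His-EuK) was read at 2 h and overnight; some compounds were tested singly at 25 micromolar as percent of control.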
For orientation: TR-FRET usually uses a lanthanide donor and a delayed reading to cut background.

Data set [2] has as its system sumoylation levels (SUMO 2/3 conjugates) in HCT-116 cells. In words: HCT-116 4 Hour Cell Assay (Western, SUMO 2/3 conjugates). The data set is classed as cell-based. As to conditions: 4 h treatment, Anti-Sumo 2-3 immunoblot, read-out: HCT-116 Western 4 h IC50 (μM) Ave. The method in brief: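 Cells treated 4 h with 11 three-fold dilutions from 25 μM; lysed in RIPA with NEM and Benzonase. Non-reducing SDS-PAGE immunoblot with anti-SUMO 2/3 mAb, IRDye fluorescent detection; conjugate signal normalized to total protein stain, IC50 from quantified bands.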

The nature of data set [3]: Plasma protein binding, equilibrium dialysis, mouse plasma. The data set is classed as in vitro ADME. To be noted: 5 hours at 37° C., read-out: PPB % bound Mouse (converted). How it is done: (§2) The compounds of interest were evaluated for various PK parameters. Specifically CACO permeability/efflux and plasma protein binding (PPP) were determined. Stock solutions were prepared at 10 mM in DMSO for test and reference compounds. Aliquots of the stock solution were diluted to 500× of final concentration (0.5 mM) with DMSO, then further diluted upon the addition of bank PE3-buffer to 20× of final concentration (20 μM). Then test and reference compounds were prepared in plasma at 1 μM. For 0 hour incubation: 25 μL of the plasma spiked with test and reference compounds was transferred into a 96-well sample preparation plate, and then 25 μL blank PB-buffer was added. The samples were quenched by 200 μL of IS solution to prepare [Initial]0h samples. For 5 hours incubation: 100 μL of the plasma spiking with test and reference compounds was loaded on donor side, and 100 μL of blank PB-buffer were loaded on receiver side of the equilibrium dialysis device. Samples were incubated in an air-bath shaker (60 rpm) for 5 hours at 37° C. After 5 hours incubation, 25 μL of samples (from both the donor sides and receiver sides of the dialysis apparatus) was aspirated and added into new sample preparation plates, separately. 25 μL of blank PB-buffer was added to donor side samples and 25 μL of blank plasma was added to receiver side samples to balance the matrix. The samples were quenched with 200 μL of IS solution. The assay plate was shaken at the vibrator (Hangzhou Allsheng, MX100-4A) for 10 min (600 rpm) and then centrifuged at 5,594×g for 15 min (Thermo Multifuge×3R). An aliquot of the 50 μL supernatant was taken from each well and diluted by 50 μL distilled water, then analyzed by UPLC-MS/MS.
A general note: Equilibrium dialysis compares concentrations on both sides of a semipermeable membrane.

Data set [4] can be described thus: Plasma protein binding, equilibrium dialysis, human plasma. The format is in vitro ADME. To be noted: 5 hours at 37° C., read-out: PPB % bound Human (converted). How it is done:
as §2

For a further data set, the system named is Caco-2 cells. In words: Caco-2 permeability/efflux. The data set is classed as in vitro ADME. As to conditions: 10 uM, 37° C., 90 min, pH 7.4. The procedure:
(§3) Caco-2 cells were obtained from American Tissue Culture Collection (Rockville, MD). The cells were maintained in Modified Eagle's medium (MEM), containing 10% heat-inactivated fetal bovine serum (FBS), and 1% non-essential amino acids, in CO2 at 37° C. Cells were seeded on polycarbonate filter inserts (Millipore, CAT #PSHT 010 R5). The cells were cultured for 21-28 days prior to the permeability experiments. The Lucifer Yellow permeability was checked before and after the assay. Compounds were dissolved at 10 mM in 100% dimethyl sulfoxide (DMSO) and diluted for studies in Hanks Balanced Salt Solution (HBSS, Invitrogen, Cat #14025-092) with 25 mM HEPES, pH 7.4. Compounds were tested at 10 µM in both the apical-to-basolateral (A-B) and basolateral-to-apical (B-A) directions, incubations were conducted at 37° C. for 90 min. At the end of incubation, samples were diluted by assay buffer, and analyzed by LC-MS/MS. The concentrations of the compounds were quantified by standard curve. The first comparator example (Comp. Ex. 1) is the chloro substituted thienodihydropyridine
In general terms: Caco-2 monolayers are a common model of the intestinal barrier.

A further data set is described as follows: Solubility Evaluation. The data set is classed as physicochemical. As to conditions: kinetic from dmso stock, 1 hour at RT. The procedure:
The compounds of interest were evaluated for their solubility in various biological solutions. Specifically, aliquots (8 μL) of reference and test compound stock solutions (10 mM) were added into 792 μL of buffer (PBS, pH7.4, FaSSIF, pH 6.5, or FaSSGF, pH 1.6) respectively (Final DMSO conc.: 1%). Sample tubes were shaken for 1 hour (1000 rpm) at RT. The experiment was calibrated using 300 μM spiked solution (SS) in MeOH/CAN (4:1) by adding 6 μL of 10 mM compound stock solution in 194 μL MeOH/ACN(4:1) ranging from 60 μM to 0.02 μM. The samples were centrifuged (10 min-12000 rpm) to precipitate un-dissolved particles. The supernatants were transferred to a new tube or plate. Supernatants were diluted 10 times and 100 times with 100 mM buffer then analyzed by LC-MS/MS. SGF=simulated gastric fluid, SIF=simulated intestinal fluid, PBS=phosphate buffered saline pH 7.4 Values are noted in μM.

The target in data set [5] is SAE1 (Homo sapiens (Human), UniProt Q9UBT2). Put plainly: SAE High Throughput Biochemical Assay (HTRF), 15 min preincubation. As to conditions: SAE1 12.5 nM, ATP 100 μM. The method, boiled down:
as §1

The nature of data set [6]: Plasma protein binding, equilibrium dialysis, rat plasma. The format is in vitro ADME. As to conditions: 5 hours at 37° C., read-out: PPB % bound Rat (converted). How it is done:
as §2

Data set [7] can be described thus: Plasma protein binding, equilibrium dialysis, dog plasma. The data set is classed as in vitro ADME. To be noted: 5 hours at 37° C., read-out: PPB % bound Dog (converted). The procedure:
as §2

The nature of data set [8]: Caco-2 permeability/efflux. The format is in vitro ADME. To be noted: human, Caco-2, pH 7.4; B-A / A-B. The procedure: as §3
The mark [9] stands for this setting: PBS (phosphate buffered saline), aqueous buffer, phosphate buffered saline pH 7.4, 1% DMSO, read-out: Solubilities PBS.
Where [10] appears, read: simulated intestinal fluid (FaSSIF, pH 6.5), 1% DMSO, read-out: Solubilities SIF.

≈ marks a conversion by molar mass, not a printed value. Read-outs that look alike come from different tables or passages of the source.

SAE1 (Homo sapiens (Human), UniProt Q9UBE0+Q9UBT2), sequence (Q9UBE0 whole entry): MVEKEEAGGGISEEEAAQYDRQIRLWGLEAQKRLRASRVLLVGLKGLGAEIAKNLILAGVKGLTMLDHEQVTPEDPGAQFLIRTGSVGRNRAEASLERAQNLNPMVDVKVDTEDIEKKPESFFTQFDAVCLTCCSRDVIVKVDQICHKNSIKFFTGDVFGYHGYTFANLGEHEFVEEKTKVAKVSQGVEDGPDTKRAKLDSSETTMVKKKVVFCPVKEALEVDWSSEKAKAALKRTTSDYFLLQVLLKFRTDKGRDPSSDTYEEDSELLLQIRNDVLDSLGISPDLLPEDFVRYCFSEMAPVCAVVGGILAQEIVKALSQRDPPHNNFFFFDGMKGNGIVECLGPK
SAE1 (Homo sapiens (Human), UniProt Q9UBE0+Q9UBT2), sequence (Q9UBT2 whole entry): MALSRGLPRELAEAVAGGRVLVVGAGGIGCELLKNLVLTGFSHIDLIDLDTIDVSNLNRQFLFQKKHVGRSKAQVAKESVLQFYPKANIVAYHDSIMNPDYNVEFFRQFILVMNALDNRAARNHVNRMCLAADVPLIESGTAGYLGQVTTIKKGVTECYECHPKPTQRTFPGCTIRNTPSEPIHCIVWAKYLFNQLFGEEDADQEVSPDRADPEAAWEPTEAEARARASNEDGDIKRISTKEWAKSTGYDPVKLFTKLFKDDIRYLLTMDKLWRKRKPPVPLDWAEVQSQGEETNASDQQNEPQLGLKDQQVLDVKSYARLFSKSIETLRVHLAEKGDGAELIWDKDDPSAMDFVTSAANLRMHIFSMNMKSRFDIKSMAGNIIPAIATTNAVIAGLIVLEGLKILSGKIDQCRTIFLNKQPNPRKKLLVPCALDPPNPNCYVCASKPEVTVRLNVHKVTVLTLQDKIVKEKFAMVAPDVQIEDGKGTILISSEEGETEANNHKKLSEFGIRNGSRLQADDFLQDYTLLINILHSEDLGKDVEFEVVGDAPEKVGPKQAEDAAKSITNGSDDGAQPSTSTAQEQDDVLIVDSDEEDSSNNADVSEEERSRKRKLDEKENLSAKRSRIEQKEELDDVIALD
SAE1 (Homo sapiens (Human), UniProt Q9UBT2), sequence (Q9UBE0 whole entry): as the sequence (Q9UBE0 whole entry) above
SAE1 (Homo sapiens (Human), UniProt Q9UBT2), sequence (Q9UBT2 whole entry): as the sequence (Q9UBT2 whole entry) above

On to `CCn1cc(-c2c(F)cccc2[C@@H]2CN(C(=O)/C=C/[C@@H]3CCCN3)Cc3sc(C#N)cc32)c(C(F)(F)F)n1` [Example 118, (S)-4-(2-(1-Ethyl-3-(trifluoromethyl)-1H-pyrazol-4-yl)-3-fluorophenyl)-6-((E)-3-((S)pyrrolidin-2-yl)acryloyl)-4,5,6,7-tetrahydrothieno[2,3-c]pyridine-2-carbonitrile], for which the half-inhibitory concentration (IC50) on SAE1 [1] stood at 0.29 µM; in data set [2] (Homo sapiens, HCT-116, 4 h), 0.114 µM. For the same compound, the fraction unbound at 5 h, 1 μM in data set [3] is 0.014; in data set [4], 0.032. The results for the Caco-2 apparent permeability (Papp) in the data set on Caco-2 cells (apical-to-basolateral) and with Caco-2 cells (basolateral-to-apical) were 4 10^-6 cm/s and 21 10^-6 cm/s, respectively. Also, the figures for the solubility at 1 h in “Solubility Evaluation” (setting [9]) and in the data set “Solubility Evaluation” (setting [10]) were 57 µM (≈ 31 µg/mL) and 70 µM (≈ 38.1 µg/mL), respectively.

`CCn1cc(-c2c(F)cccc2[C@@H]2CN(C(=O)/C=C/[C@H](C)NC)Cc3sc(C#N)cc32)c(C(F)(F)F)n1` [Example 89, (S)-4-(2-(1-Ethyl-3-(trifluoromethyl)-1 H pyrazol-4-yl)-3-fluorophenyl)-6-((S, E)-4-(methylamino)pent-2-enoyl)-4,5,6,7-tetrahydrothieno[2,3-c]pyridine-2-carbonitrile]: the IC50 amounted to 1.13 µM at SAE1 [1] and 0.145 µM in data set [2] (Homo sapiens, HCT-116, 4 h). In addition, the fraction unbound at 5 h, 1 μM in [3] was 0.024; in data set [4], 0.029. Also, the Caco-2 apparent permeability (Papp) was 8 10^-6 cm/s in the data set with Caco-2 cells (apical-to-basolateral) and 11 10^-6 cm/s in the data set on Caco-2 cells (basolateral-to-apical). In addition, the solubility at 1 h was 78 µM (≈ 41.5 µg/mL) in “Solubility Evaluation” (setting [9]) and 90 µM (≈ 47.8 µg/mL) in the data set “Solubility Evaluation” (setting [10]).

For `CCn1cc(-c2c(F)cccc2[C@@H]2CN(C(=O)/C=C/CNC)Cc3sc(C#N)c(C)c32)c(C(F)(F)F)n1` [Example 217, (S, E)-4-(2-(1-ethyl-3-(trifluoromethyl)-1 H-pyrazol-4-yl)-3-fluorophenyl)-3-methyl-6-(4-(methylamino)but-2-enoyl)-4,5,6,7-tetrahydrothieno[2,3-c]pyridine-2-carbonitrile], the IC50 on SAE1 [1] was determined as 0.13 µM; on SAE1 [5], 0.15 µM; in data set [2], 0.18 µM; in data set [2] (Homo sapiens, HCT-116, 4 h), 0.101 µM. The fraction unbound at 5 h, 1 μM in data set [3] was 0.026; in data set [6], 0.051; in [4], 0.028; in data set [7], 0.013. Also, the efflux ratio at 90 min, 10 μM in data set [8] amounted to 2. In addition, the Caco-2 apparent permeability (Papp) is 6 10^-6 cm/s in the data set on Caco-2 cells (apical-to-basolateral) and 14 10^-6 cm/s with Caco-2 cells (basolateral-to-apical).

As to `CCn1cc(-c2ccccc2[C@@H]2CN(C(=O)/C=C/CNC)Cc3sc(C#N)cc32)c(C(F)(F)F)n1` [Example 12, (S, E)-4-(2-(1-Ethyl-3-(trifluoromethyl)-1 H-pyrazol-4-yl)phenyl)-6-(4-(methylamino)but-2-enoyl)-4,5,6,7-tetrahydrothieno[2,3-c]pyridine-2-carbonitrile], the 50% inhibitory concentration (IC50) against SAE1 [5] was 3.33 µM; in data set [2] (Homo sapiens, HCT-116, 4 h) it was 0.353 µM. The fraction unbound at 5 h, 1 μM in data set [3] was 0.035; in [4] it was 0.049. For the same compound, the efflux ratio at 90 min, 10 μM in [8] amounted to 5. Also, the Caco-2 apparent permeability (Papp) is 5 10^-6 cm/s with Caco-2 cells (apical-to-basolateral) and 58 10^-6 cm/s in the data set with Caco-2 cells (basolateral-to-apical).

As for `CCn1cc(-c2c(F)cccc2[C@@H]2CN(C(=O)/C=C/CN(C)C)Cc3sc(C#N)cc32)c(C(F)(F)F)n1` [Example 215, (S,E)-6-(4-(dimethylamino)but-2-enoyl)-4-(2-(1-ethyl-3-(trifluoromethyl)-1 H-pyrazol-4-yl)-3-fluorophenyl)-4,5,6,7-tetrahydrothieno[2,3-c]pyridine-2-carbonitrile], the IC50 on SAE1 [1] turned out to be 1.35 µM; in data set [2] (Homo sapiens, HCT-116, 4 h) it was 0.0856 µM. The fraction unbound at 5 h, 1 μM in data set [3] is 0.023; in data set [4], 0.04; in [7], 0.02. Further, in data set [8], the efflux ratio at 90 min, 10 μM was determined as 1. Moreover, the results for the Caco-2 apparent permeability (Papp) in the data set on Caco-2 cells (apical-to-basolateral) and in the data set on Caco-2 cells (basolateral-to-apical) were 15 10^-6 cm/s and 20 10^-6 cm/s, respectively.
